According to patent US6423689B1, “Peptidyl calcium channel blockers” (Warner-Lambert Company, priority 1997, dated 2002):

What follows are compounds tested against T1, N-type Ca2+ channels in IMR-32 cells (Homo sapiens, UniProt Q00975) (assay: Inhibition of N-type calcium flux in IMR-32 cells (Indo-1 fluorescence, nitrendipine present)). Details: 10 μM.
T1 construct: host or cells: IMR-32 cells, differentiated with dibutyryl cAMP and bromodeoxyuridine
Format: cell-based
How it was run: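 With L-type flux blocked by 5 μM nitrendipine, N-type Ca2+ entry was read as the Indo-1 emission ratio (400/490 nm, excitation 350 nm) at 30° C after KCl depolarization.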

T1 sequence (Q00975 whole entry): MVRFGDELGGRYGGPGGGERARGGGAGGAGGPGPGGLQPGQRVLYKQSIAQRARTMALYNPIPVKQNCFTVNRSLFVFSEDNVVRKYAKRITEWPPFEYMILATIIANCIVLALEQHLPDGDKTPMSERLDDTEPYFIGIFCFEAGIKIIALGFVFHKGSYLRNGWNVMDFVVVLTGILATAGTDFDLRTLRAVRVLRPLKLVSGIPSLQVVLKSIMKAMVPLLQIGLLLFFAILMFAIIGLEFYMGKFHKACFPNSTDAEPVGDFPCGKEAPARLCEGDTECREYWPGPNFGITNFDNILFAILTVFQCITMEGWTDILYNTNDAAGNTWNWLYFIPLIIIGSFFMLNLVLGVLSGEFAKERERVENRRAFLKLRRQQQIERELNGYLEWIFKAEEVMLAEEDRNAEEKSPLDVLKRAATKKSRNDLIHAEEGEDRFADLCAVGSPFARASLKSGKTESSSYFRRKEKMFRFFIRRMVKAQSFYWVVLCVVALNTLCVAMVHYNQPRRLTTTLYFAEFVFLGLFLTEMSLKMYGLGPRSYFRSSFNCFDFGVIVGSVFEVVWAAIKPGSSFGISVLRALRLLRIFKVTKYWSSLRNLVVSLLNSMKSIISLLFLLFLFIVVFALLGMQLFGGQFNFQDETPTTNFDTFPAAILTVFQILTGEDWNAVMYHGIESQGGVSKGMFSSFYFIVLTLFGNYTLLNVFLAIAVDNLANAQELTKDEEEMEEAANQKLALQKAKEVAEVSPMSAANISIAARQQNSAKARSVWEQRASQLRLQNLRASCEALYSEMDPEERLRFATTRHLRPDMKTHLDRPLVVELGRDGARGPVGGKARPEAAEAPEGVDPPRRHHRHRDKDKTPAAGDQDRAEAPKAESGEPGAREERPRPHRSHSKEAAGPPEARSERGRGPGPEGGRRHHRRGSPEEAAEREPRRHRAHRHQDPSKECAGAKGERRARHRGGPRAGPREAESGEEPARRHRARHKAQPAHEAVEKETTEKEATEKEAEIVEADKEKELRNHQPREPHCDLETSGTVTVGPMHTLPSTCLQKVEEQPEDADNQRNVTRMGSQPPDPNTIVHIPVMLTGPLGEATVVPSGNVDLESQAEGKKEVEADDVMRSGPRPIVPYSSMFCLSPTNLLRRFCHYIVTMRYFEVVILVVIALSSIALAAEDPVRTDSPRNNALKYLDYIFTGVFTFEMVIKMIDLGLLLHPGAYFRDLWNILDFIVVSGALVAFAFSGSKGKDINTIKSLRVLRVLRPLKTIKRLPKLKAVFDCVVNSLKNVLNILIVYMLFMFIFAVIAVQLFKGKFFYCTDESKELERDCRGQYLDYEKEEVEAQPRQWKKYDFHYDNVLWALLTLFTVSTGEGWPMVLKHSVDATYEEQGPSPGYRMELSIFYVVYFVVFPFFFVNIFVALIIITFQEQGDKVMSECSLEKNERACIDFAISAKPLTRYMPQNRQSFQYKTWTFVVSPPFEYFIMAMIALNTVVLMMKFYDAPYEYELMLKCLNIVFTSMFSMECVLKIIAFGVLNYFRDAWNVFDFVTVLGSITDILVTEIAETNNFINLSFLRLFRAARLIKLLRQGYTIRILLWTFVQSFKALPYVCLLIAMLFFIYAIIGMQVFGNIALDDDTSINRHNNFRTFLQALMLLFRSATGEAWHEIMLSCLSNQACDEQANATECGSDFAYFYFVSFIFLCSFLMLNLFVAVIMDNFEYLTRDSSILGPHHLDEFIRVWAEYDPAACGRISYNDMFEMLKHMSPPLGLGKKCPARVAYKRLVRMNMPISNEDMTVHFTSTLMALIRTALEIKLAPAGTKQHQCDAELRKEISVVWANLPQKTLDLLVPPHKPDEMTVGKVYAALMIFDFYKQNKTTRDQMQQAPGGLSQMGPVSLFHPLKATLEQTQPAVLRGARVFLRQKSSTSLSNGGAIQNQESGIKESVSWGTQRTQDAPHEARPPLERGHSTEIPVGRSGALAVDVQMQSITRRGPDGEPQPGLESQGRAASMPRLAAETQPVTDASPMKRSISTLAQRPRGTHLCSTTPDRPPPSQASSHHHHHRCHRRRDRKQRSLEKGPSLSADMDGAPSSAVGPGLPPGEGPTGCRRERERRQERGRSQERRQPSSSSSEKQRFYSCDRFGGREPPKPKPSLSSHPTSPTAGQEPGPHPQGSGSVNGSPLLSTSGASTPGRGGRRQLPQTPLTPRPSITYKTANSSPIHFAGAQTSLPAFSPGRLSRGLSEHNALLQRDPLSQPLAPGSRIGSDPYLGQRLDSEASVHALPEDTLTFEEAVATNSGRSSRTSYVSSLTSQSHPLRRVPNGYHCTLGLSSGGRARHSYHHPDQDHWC
T1 sequence (P54289 25-956 partner limits assumed): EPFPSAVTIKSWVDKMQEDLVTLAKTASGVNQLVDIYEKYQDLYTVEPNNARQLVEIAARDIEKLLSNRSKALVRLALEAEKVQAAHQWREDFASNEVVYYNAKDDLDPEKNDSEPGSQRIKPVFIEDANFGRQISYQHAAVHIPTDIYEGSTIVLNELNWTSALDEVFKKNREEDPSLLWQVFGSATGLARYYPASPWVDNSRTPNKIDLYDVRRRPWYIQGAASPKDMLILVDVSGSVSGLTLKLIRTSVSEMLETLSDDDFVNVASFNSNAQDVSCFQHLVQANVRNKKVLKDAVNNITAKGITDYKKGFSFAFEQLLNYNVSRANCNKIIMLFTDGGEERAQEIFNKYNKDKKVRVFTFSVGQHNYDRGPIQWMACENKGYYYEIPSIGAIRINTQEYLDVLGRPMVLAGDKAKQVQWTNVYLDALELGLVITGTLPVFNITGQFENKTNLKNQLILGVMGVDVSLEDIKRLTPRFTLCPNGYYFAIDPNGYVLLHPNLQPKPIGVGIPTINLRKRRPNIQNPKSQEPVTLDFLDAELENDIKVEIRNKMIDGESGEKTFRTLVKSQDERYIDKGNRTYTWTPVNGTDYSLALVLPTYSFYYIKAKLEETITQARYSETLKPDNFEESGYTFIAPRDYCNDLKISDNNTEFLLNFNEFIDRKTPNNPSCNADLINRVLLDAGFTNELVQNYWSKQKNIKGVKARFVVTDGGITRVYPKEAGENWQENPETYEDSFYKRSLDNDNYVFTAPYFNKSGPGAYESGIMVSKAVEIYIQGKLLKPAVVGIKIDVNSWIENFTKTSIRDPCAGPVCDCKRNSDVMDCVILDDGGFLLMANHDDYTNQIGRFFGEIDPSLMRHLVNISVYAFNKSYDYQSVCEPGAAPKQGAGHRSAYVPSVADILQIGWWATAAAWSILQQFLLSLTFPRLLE
T1 sequence (P54289 957-1103 partner limits assumed): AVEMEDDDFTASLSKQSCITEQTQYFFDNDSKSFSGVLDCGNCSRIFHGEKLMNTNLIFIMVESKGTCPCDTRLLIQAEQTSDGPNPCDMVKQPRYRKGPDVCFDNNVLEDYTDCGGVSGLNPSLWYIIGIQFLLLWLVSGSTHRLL
T1 sequence (P54284 whole entry partner): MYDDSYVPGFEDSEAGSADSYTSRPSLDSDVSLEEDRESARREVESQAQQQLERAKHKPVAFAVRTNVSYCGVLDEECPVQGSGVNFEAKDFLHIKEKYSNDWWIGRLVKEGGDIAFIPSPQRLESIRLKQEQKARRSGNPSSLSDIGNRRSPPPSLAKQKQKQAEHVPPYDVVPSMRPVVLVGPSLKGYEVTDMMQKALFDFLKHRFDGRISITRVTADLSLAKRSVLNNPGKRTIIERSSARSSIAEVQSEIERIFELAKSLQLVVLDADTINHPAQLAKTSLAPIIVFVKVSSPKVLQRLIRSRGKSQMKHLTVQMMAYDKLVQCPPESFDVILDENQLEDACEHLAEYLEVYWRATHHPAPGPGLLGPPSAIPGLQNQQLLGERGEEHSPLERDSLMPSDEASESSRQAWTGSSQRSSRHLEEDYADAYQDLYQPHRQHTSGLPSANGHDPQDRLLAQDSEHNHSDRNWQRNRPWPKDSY

| Inhibition of Calcium Flux in IMR-32 Cells % Inhibition at 10 μM [%] | Compound |
| --- | --- |
| 76 | Cc1nn(C)c(Cl)c1S(=O)(=O)N[C@@H](CC(C)C)C(=O)N[C@@H](Cc1ccc(OCc2ccccc2)cc1)C(=O)OC(C)(C)C (relative stereo) [Example 110, [S-(R*,R*)]-3-(4-Benzyloxy-phenyl)-2-[2-(5-chloro-1,3-dimethyl-1H-pyrazole-4-sulfonylamino)-4-methyl-pentanoylamino]-propionic acid tert-butyl ester] |
| 83 | CC(C)C[C@H](NC(=O)Cc1c[nH]c2ccccc12)C(=O)C[C@H](Cc1ccc(OCc2ccccc2)cc1)C(=O)OC(C)(C)C (relative stereo) [Example 113, [S-(R*,R*)]-2-(4-Benzyloxy-benzyl)-5-(2-1H-indol-3-yl-acetylamino)-7-methyl-4-oxo-octanoic acid tert-butyl ester] |
| 66 | CCCCCCC(=O)N[C@@H](CC(C)C)C(=O)N[C@@H](Cc1ccc(OCc2ccccc2)cc1)C(=O)OC(C)(C)C (relative stereo) [Example 114, [S-(R*,R*)]-3-(4-Benzyloxy-phenyl)-2-(2-heptanoylamino-4-methyl-pentanoylamino)-propionic acid tert-butyl ester] |
| 71 | CC(C)C[C@H](NC(=O)C(C)C)C(=O)N[C@@H](Cc1ccc(OCc2ccccc2)cc1)C(=O)OC(C)(C)C (relative stereo) [Example 115, [S-(R*,R*)]-3-(4-Benzyloxy-phenyl)-2-(2-isobutyrylamino-4-methyl-pentanoylamino)-propionic acid tert-butyl ester] |
| 53 | CC(=O)N[C@@H](CC(C)C)C(=O)N[C@@H](Cc1ccc(OCc2ccccc2)cc1)C(=O)OC(C)(C)C (relative stereo) [Example 116, [S-(R*,R*)]-2-(2-Acetylamino-4-methyl-pentanoylamino)-3-(4-benzyloxy-phenyl)-propionic acid tert-butyl ester] |
| 66 | CCC(=O)N[C@@H](CC(C)C)C(=O)N[C@@H](Cc1ccc(OCc2ccccc2)cc1)C(=O)OC(C)(C)C (relative stereo) [Example 117, [S-(R*,R*)]-3-(4-Benzyloxy-phenyl)-2-(4-methyl-2-propionylamino-pentanoylamino)-propionic acid tert-butyl ester] |
| 80 | CCCC(=O)N[C@@H](CC(C)C)C(=O)N[C@@H](Cc1ccc(OCc2ccccc2)cc1)C(=O)OC(C)(C)C (relative stereo) [Example 118, [S-(R*,R*)]-3-(4-Benzyloxy-phenyl)-2-(2-butyrylamino-4-methyl-pentanoylamino)-propionic acid tert-butyl ester] |
| 65 | CC(C)C[C@H](NC(=O)Cc1cccnc1)C(=O)N[C@@H](Cc1ccc(OCc2ccccc2)cc1)C(=O)OC(C)(C)C (relative stereo) [Example 119, [S-(R*,R*)]-3-(4-Benzyloxy-phenyl)-2-[4-methyl-2-(2-pyridin-3-yl-acetylamino)pentanoylamino]-propionic acid tert-butyl ester] |
| 65 | CC(C)C[C@H](NC(=O)CCc1c[nH]c2ccccc12)C(=O)N[C@@H](Cc1ccc(OCc2ccccc2)cc1)C(=O)OC(C)(C)C (relative stereo) [Example 120, [S-(R*,R*)]-3-(4-Benzyloxy-phenyl)-2-[2-(3-1H-indol-3-yl-propionylamino)-4-methyl-pentanoylamino]-propionic acid tert-butyl ester] |
| 25 | Cc1nn(-c2ccccc2)nc1C(=O)N[C@@H](CC(C)C)C(=O)N[C@@H](Cc1ccc(OCc2ccccc2)cc1)C(=O)OC(C)(C)C (relative stereo) [Example 121, [S-(R*,R*)]-3-(4-Benzyloxy-phenyl)-2-{4-methyl-2-[(5-methyl-2-phenyl-2H-[1,2,3]triazole-4-carbonyl)-amino]-pentanoylamino}-propionic acid tert-butyl ester] |
| 84 | CC(C)C[C@H](NC(=O)Cc1cccs1)C(=O)N[C@@H](Cc1ccc(OCc2ccccc2)cc1)C(=O)OC(C)(C)C (relative stereo) [Example 122, [S-(R*,R*)]-3-(4-Benzyloxy-phenyl)-2-[4-methyl-2-(2-thiophen-2-yl-acetylamino)pentanoylamino]-propionic acid tert-butyl ester] |
| 67 | CC(C)C[C@H](NC(=O)c1ccno1)C(=O)N[C@@H](Cc1ccc(OCc2ccccc2)cc1)C(=O)OC(C)(C)C (relative stereo) [Example 123, [S-(R*,R*)]-3-(4-Benzyloxy-phenyl)-2-{2-1(isoxazole-5-carbonyl)-amino]-4-methyl-pentanoylamino}-propionic acid tert-butyl ester] |
| 61 | CC(C)C[C@H](NC(=O)C(F)(F)C(F)(F)F)C(=O)C[C@H](Cc1ccc(OCc2ccccc2)cc1)C(=O)OC(C)(C)C (relative stereo) [Example 127, [S-(R*,R*)]-2-(4-Benzyloxy-benzyl)-7-methyl-4-oxo-5-(2,2,3,3,3-pentafluoro-propionylamino)-octanoic acid tert-butyl ester] |
| 78 | CC(C)C[C@H](NC(=O)C(F)(F)F)C(=O)N[C@@H](Cc1ccc(OCc2ccccc2)cc1)C(=O)OC(C)(C)C (relative stereo) [Example 128, [S-(R*,R*)]-3-(4-Benzyloxy-phenyl)-2-[4-methyl-2-(2,2,2-trifluoro-acetylamino)pentanoylamino]-propionic acid tert-butyl ester] |
| 74 | CC(C)C[C@H](NC(=O)C(C)(C)C)C(=O)N[C@@H](Cc1ccc(OCc2ccccc2)cc1)C(=O)OC(C)(C)C (relative stereo) [Example 129, [S-(R*,R*)]-3-(4-Benzyloxy-phenyl)-2-[2-(2,2-dimethyl-propionylamino)-4-methyl-pentanoylamino]-propionic acid tert-butyl ester] |

| Compound | Inhibition of Calcium Flux in IMR-32 Cells % Inhibition at 10 μM [%] |
| --- | --- |
| CC(C)C[C@H](NS(=O)(=O)c1ccc2cccnc2c1)C(=O)N[C@@H](Cc1ccc(OCc2ccccc2)cc1)C(=O)OC(C)(C)C (relative stereo) [Example 109, [S-(R*,R*)]-3-(4-Benzyloxy-phenyl)-2-[4-methyl-2-(quinoline-7-sulfonylamino)-pentanoylamino]-propionic acid tert-butyl ester] | 56 |
| CC(C)C[C@H](NC(=O)c1cccnc1)C(=O)N[C@@H](Cc1ccc(OCc2ccccc2)cc1)C(=O)OC(C)(C)C (relative stereo) [Example 124, [S-(R*,R*)]-3-(4-Benzyloxy-phenyl)-2-{4-methyl-2-[(pyridine-3-carbonyl)-amino]pentanoylamino}-propionic acid tert-butyl ester] | 60 |
| CC(C)C[C@H](NC(=O)c1cnc2ccccc2n1)C(=O)N[C@@H](Cc1ccc(OCc2ccccc2)cc1)C(=O)OC(C)(C)C (relative stereo) [Example 126, [S-(R*,R*)]-3-(4-Benzyloxy-phenyl)-2-{4-methyl-2-[(quinoxaline-2-carbonyl)-amino]pentanoylamino}-propionic acid tert-butyl ester] | 28 |
